The values that follow come from patent US11059780B2, “Substituted pyrrolidine compound and use thereof” (Takeda Pharmaceutical Company Limited, priority 2017, dated 2021).

This assay addresses T1, human orexin type 2 receptor (hOX2R) (Homo sapiens, UniProt O43614).
T1 construct: expressed in transfected cells
T1 sequence (O43614 1-444): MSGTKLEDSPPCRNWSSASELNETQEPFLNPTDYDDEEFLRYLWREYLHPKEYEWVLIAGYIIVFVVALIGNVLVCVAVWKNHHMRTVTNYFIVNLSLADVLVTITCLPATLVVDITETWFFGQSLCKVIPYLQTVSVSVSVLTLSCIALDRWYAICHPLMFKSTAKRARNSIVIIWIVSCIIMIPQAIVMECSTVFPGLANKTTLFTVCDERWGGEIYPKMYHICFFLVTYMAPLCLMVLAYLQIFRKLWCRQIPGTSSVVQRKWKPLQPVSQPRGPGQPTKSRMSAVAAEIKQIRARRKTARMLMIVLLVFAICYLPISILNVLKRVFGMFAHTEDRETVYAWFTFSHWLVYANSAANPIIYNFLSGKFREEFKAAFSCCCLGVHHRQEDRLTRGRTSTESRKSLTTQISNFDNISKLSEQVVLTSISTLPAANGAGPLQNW
The assay can be described thus: Measurement of orexin type 2 receptor agonist activity (Fluo-4 calcium fluorescence, CHO cells forcibly expressing human OX2 receptor). The class given is cell-based. Particulars: test compound 3 μM, DMSO = 0%, orexin A (human) 10 nM = 100%. A digest of the protocol: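 CHO-dhfr cells stably expressing human OX2 receptor, loaded with Fluo-4 AM in HBSS/HEPES/BSA with probenecid, then given test compound at 3 μM. Calcium fluorescence recorded for about 2 min 40 s by FDSS; activity normalized to DMSO (0%) and 10 nM human orexin A (100%).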
As for `CCc1cccc(C)c1C(=O)N1C[C@@H](OC)[C@H](Oc2cccc(NS(=O)(=O)N3CC4CC4C3)c2)C1` (stereo partly drawn) [Example 134, N-(3-(((3R,4R)-1-(2-ethyl-6-methylbenzoyl)-4-methoxypyrrolidin-3-yl)oxy)phenyl)-3-azabicyclo[3.1.0]hexane-3-sulfonamide], the “OX2R agonist activity (3 μM, %)” value is reported as 108%.
For the compound `COc1cccc(C)c1C(=O)N1C[C@@H](OC)[C@H](Oc2cccc(NS(=O)(=O)N(C)C)c2)C1` [Example 135, N′-(3-(((3R,4R)-4-methoxy-1-(2-methoxy-6-methylbenzoyl)pyrrolidin-3-yl)oxy)phenyl)-N,N-dimethylsulfuric diamide], the “OX2R agonist activity (3 μM, %)” value turned out to be 90%.
The figure for `CO[C@@H]1CN(C(=O)c2cc(C)ccc2C)C[C@H]1Oc1cccc(C(C)S(=O)(=O)N2CCC[C@H]2c2ccccn2)c1` (stereo partly drawn) [Example 137, (2,5-dimethylphenyl)((3R,4R)-3-methoxy-4-(3-(1-(((2S)-2-(pyridin-2-yl)pyrrolidin-1-yl)sulfonyl)ethyl)phenoxy)pyrrolidin-1-yl)methanone] is 88%; for `CO[C@@H]1CN(C(=O)Oc2ccccc2C)C[C@H]1Oc1cccc(NS(=O)(=O)N2CC3CC3C2)c1` (stereo partly drawn) [Example 138, 2-methylphenyl(3R,4R)-3-(3-((3-azabicyclo[3.1.0]hex-3-ylsulfonyl)amino)phenoxy)-4-methoxypyrrolidine-1-carboxylate] it is 38%.
With `CCc1cccc(C)c1C(=O)N1C[C@@H](OC)[C@H](Oc2cccc(CS(=O)(=O)N(C)C3CCOCC3)c2)C1` [Example 146, 1-(3-(((3R,4R)-1-(2-ethyl-6-methylbenzoyl)-4-methoxypyrrolidin-3-yl)oxy)phenyl)-N-methyl-N-(tetrahydro-2H-pyran-4-yl)methanesulfonamide] the figure was 105%; with `CO[C@@H]1CN(C(=O)Oc2c(C)cccc2C)C[C@H]1Oc1cccc(NS(=O)(=O)N2CC3CC3C2)c1` (stereo partly drawn) [Example 148, 2,6-dimethylphenyl(3R,4R)-3-(3-((3-azabicyclo[3.1.0]hex-3-ylsulfonyl)amino)phenoxy)-4-methoxypyrrolidine-1-carboxylate], 76%; with `CCc1cccc(C)c1C(=O)N1C[C@@H](OC)[C@H](Oc2cccc(CS(=O)(=O)N(C)[C@@H]3C[C@H]4CC[C@@H](C3)O4)c2)C1` [Example 149, 1-(3-(((3R,4R)-1-(2-ethyl-6-methylbenzoyl)-4-methoxypyrrolidin-3-yl)oxy)phenyl)-N-methyl-N-((3-exo)-8-oxabicyclo[3.2.1]oct-3-yl)methanesulfonamide], 110%.
In the case of `COc1ccccc1OC(=O)N1C[C@@H](OC)[C@H](Oc2cccc(NS(=O)(=O)N3CC4CC4C3)c2)C1` (stereo partly drawn) [Example 157, 2-methoxyphenyl(3R,4R)-3-(3-((3-azabicyclo[3.1.0]hex-3-ylsulfonyl)amino)phenoxy)-4-methoxypyrrolidine-1-carboxylate], the “OX2R agonist activity (3 μM, %)” value was 83%.
Regarding `CCc1cccc(C)c1C(=O)N1C[C@@H](OC)[C@H](Oc2cccc(CS(=O)(=O)N(CC)C3CCOCC3)c2)C1` [Example 158, N-ethyl-1-(3-(((3R,4R)-1-(2-ethyl-6-methylbenzoyl)-4-methoxypyrrolidin-3-yl)oxy)phenyl)-N-(tetrahydro-2H-pyran-4-yl)methanesulfonamide], the “OX2R agonist activity (3 μM, %)” value amounted to 83%.
`CCc1cccc(C)c1C(=O)N1CC[C@H](Oc2cccc(CS(=O)(=O)N(C)C3CCOCC3)c2)C1` [Example 159, 1-(3-(((3S)-1-(2-ethyl-6-methylbenzoyl)pyrrolidin-3-yl)oxy)phenyl)-N-methyl-N-(tetrahydro-2H-pyran-4-yl)methansulfo]: the “OX2R agonist activity (3 μM, %)” value is listed as 89%.
